Values of other authors as cited in patent US20060166974A1, “Azabenzoxazoles for the treatment of CNS disorders” (Pfizer Inc., priority 2004, published 2006).

In the case of O=C1Cc2cc(CCN3CCN(c4nsc5ccccc45)CC3)c(Cl)cc2N1 [Ziprasidone, 5-[2-[4-(1,2-benzisothiazol-3-yl)piperazin-1-yl]ethyl]-6-chloroindolin-2-one], the half-life (in vivo) is given as 6 to 7 h, the protein binding (in vivo) is given as “extensive” and the Oral bioavailability (taken with food) is given as “approximately 60%”.
